Data as given in US10201507B2, “Modulators of intracellular chloride concentration for treating fragile X syndrome” (NEUROCHLORE, priority 2012, dated 2019).
“Also recorded” adds a separate entry of the source.

How the values were obtained:
hippocampal slices = assay: Extracellular field potentials / spike frequency in hippocampal slices at P15 on isoguvacine; type: cell-based, mouse; conditions: for normalized spike frequency: P15, isoguvacine (10 μM)
Excerpt: Recording were made in the hippocampal slices using tungsten wire electrodes (diameter: 50 μm, California Fine Wire, Grover Beach, Calif.) and a low-noise multichannel DAM-8A amplifiers (WPI, GB; […]; gain: ×1000). The signals were digitized using an analogue-to-digital converter (Digidata 1440A, Axon Instruments, USA). pCLAMP 10.1, Clampfit 10.1 (Axon Instruments, USA), MiniAnalysis 6.03 (Synaptosoft, Decatur, Calif.) and Origin 7.5 (Microcal Software, USA) programs were used for the acquisition and analysis of the synaptic activities. Sampling interval per signal was 100 microseconds (10 kHz).
To test whether depolarizing actions of GABA were associated with neuronal excitation, the effect of the GABAA receptor agonist isoguvacine was tested. […] To test whether maternal treatment with bumetanide before delivery switches the action of GABA from excitatory to inhibitory in offsprings at P15, pregnant females were treated orally 1 day before delivery with bumetanide (2-2.5 mg/kg in drinking water) and juvenile offspring neurons recorded at P15. […] Therefore, excitatory actions of GABA during delivery produce long term deleterious effects on electrophysiological parameters of FXS juvenile neurons. In FXS mice, GABAergic inputs are excitatory and contribute to hyperexcitability of the network. Bumetanide decreases [Cl^−]i and consequently reduces contribution of excitatory GABAergic inputs in the overall network activity.

CA3 pyramidal cells = assay: Single GABAA channel recordings of driving force of GABA (DFGABA) in hippocampal slices, drug applied to slice; type: cell-based, mouse; conditions: FXS neurons at P0 (birth); oxytocin 1 μM
Method: Mice lacking Fmr1 (referred to as Fmr1^−/−) were bred in our animal facility. […] For all experiments, Fmr1^−/− mice were used with wild-type littermates as a control group. The offspring were used for experiments at E18, P0, P2, P4, P7, P9, P15 and P30. Experiments were carried out on offspring of either sex and in a blind manner at E18 and P0.
Experiments were performed on fetuses and neonatal wild type and Fragile X mice from the embryonic day […] to the postnatal day P38 (term is E21). All of the research was performed in compliance with the national guidelines on human care and use of laboratory animals and approved by INSERM.
Hippocampal slices (300-500 μm thick) were prepared using a Microm tissue slicer (International GmbH, Germany) as described previously (Tyzio et al., 2006, 2008). Slices were kept in oxygenated (95% O2/5% CO2) artificial cerebrospinal fluid (ACSF) of the following composition (in mM): NaCl 126, KCl 3.5, CaCl2 2.0, MgCl2 1.3, NaHCO3 25, NaH2PO4 1.2 and glucose 11 (pH 7.4) at room temperature (20-22° C.) at least 1 hour before use.
For recordings, slices were placed into a conventional fully submerged chamber superfused with ACSF at a rate of 2-3 ml/min at room temperature. Patch clamp recordings from visually identified CA3 pyramidal cells in cell-attached configuration were performed using EPC-10 amplifier (HEKA Elektronik Dr. Schulze GmbH, Lambrecht/Pfalz, Germany). Patch pipette solution for recordings of single GABAA channels contained (in mM): NaCl 120, KCl 5, TEA-Cl 20, 4-aminopyridine 5, CaCl2 0.1, MgCl2 10, glucose 10, Hepes-NaOH 10 buffered to pH 7.2-7.3 and GABA 2 μM. Analysis of currents through single channels and current-voltage relationships were performed using Clampfit 9.2 (Axon Instruments, Union City, Calif.). Recordings were digitized (10 kHz) online with Digidata-1200 interface card (Axon Instruments, Union City, Calif.) and analyzed offline with Axon package, MiniAnalysis (S (Synaptsoft, Decatur, Ga.), and Origin (Microcal Software, Northampton, Mass.). […]

Row | SMILES | normalized spike frequency (hippocampal slices; FXS mice) [%] | normalized spike frequency (hippocampal slices; WT mice) [%] | Effect on field potential recordings (in words) (hippocampal slices; naive neurons, P15, isoguvacine 2 μM) | Effect on DFGABA (in words) (CA3 pyramidal cells)
1 | O=C(O)C1=CCNCC1 [isoguvacine] | 165.8±13.5 | 67.9±6.1 | inhibited or did not affect field potential recordings | 
2 | CC[C@H](C)[C@@H]1NC(=O)[C@H](Cc2ccc(O)cc2)NC(=O)[C@@H](N)CSSC[C@@H](C(=O)N2CCC[C@H]2C(=O)N[C@@H](CC(C)C)C(=O)NCC(N)=O)NC(=O)[C@H](CC(N)=O)NC(=O)[C@H](CCC(N)=O)NC1=O [oxytocin] |  |  |  | shift it to hyperpolarization; also recorded: shifted DFGABA
